Measured values reported in US8895585B2, “Nicotinamide derivative or salt thereof” (FUJIFILM Corporation, priority 2010, dated 2014).

Experiments:
[1] = target: T1, glutathione S-transferase (GST)-fused full-length human Syk protein (Homo sapiens, UniProt P43405); test: Syk enzyme assay; assay type: biochemical; conditions: Syk enzyme assay, Test Example 1; read-out: IC50 of Syk-inhibitory activity
T1 construct: (GST)-fused full-length human Syk protein; GST (glutathione S-transferase); purchased Carna Biosciences
In short: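 GST-tagged full-length human Syk (baculovirus) preincubated with compound 15 min at room temperature (pH 7.0, 10 mM MgCl2), then reacted 40 min with 0.4 μM biotinylated peptide substrate and 27 μM ATP (final). Phosphorylation read by HTRF (615/665 nm) after EDTA stop; IC50 reported.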

THP-1 cells = test: TNFα generation assay; assay type: cell-based, human; conditions: Homo sapiens, THP-1, THP-1 cells; Table 22; read-out: IC50 in TNFα generation assay
In short: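 THP-1 cells differentiated to macrophage-like cells with 10 ng/ml IFN-γ for 2 days, preincubated with compound 30 min at room temperature, then cultured 7 h on plates coated with human IgG (10 μg/ml). Secreted TNFα measured by ELISA or AlphaLISA.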

SMILES	IC50 [1] [nM]	IC50 (THP-1 cells) [nM]
COc1cc(Nc2nc(N[C@@H]3CCOC[C@@H]3N)c(F)cc2C(N)=O)ccn1 [Example 006-531, 6-(((3R,4R)-3-aminotrahydro-2H-pyran-4-yl)amino)-5-fluoro-2-((2-methoxypyridin-4-yl)amino)nicotinamide]	< 10	65 to 130
NC(=O)c1cc(F)c(N[C@@H]2CCCC[C@@H]2N)nc1Nc1ccc(N2CCOC2=O)nc1 [Example 006-537, 6-(((1R,2S)-2-aminocyclohexyl)amino)-5-fluoro-2-((6-(2-oxooxazolidin-3-yl)pyridin-3-yl)amino)nicotinamide]	10 to 50	65 to 130
CCc1nn(C)c2ccc(Nc3nc(N[C@H](CC)[C@H](C)N)c(F)cc3C(N)=O)cc12 [Example 006-539, 6-(((2S,3R)-2-aminopentan-3-yl)amino)-2-((3-ethyl-1-methyl-1H-indazol-5-yl)amino)-5-fluoronicotinamide]	< 10	130 to 200
CCc1nn(CC)c2ccc(Nc3nc(N[C@H](CC)[C@H](C)N)c(F)cc3C(N)=O)cc12 [Example 006-541, 6-(((2S,3R)-2-aminopentan-3-yl)amino)-2-((1,3-diethyl-1H-indazol-5-yl)amino)-5-fluoronicotinamide]	< 10	130 to 200
CC[C@@H](Nc1nc(Nc2ccc3c(c2)c(C(C)C)nn3C)c(C(N)=O)cc1F)[C@H](C)N [Example 006-543, 6-(((2S,3R)-2-aminopentan-3-yl)amino)-5-fluoro-2-((3-isopropyl-1-methyl-1H-indazol-5-yl)amino)nicotinamide]	< 10	65 to 130
Cn1nc(C2CC2)c2cc(Nc3nc(N[C@@H]4CCCC[C@@H]4N)c(F)cc3C(N)=O)ccc21 [Example 006-544, 6-(((1R,2S)-2-aminocyclohexyl)amino)-2-((3-cyclopropyl-1-methyl-1H-indazol-5-yl)amino)-5-fluoronicotinamide]	< 10	65 to 130
C[C@H](N)[C@@H](CC1CC1)Nc1nc(Nc2ccc3c(c2)c(C2CC2)nn3C)c(C(N)=O)cc1F [Example 006-545, 6-(((2R,3S)-3-amino-1-cyclopropylbutan-2-yl)amino)-2-((3-cyclopropyl-1-methyl-1H-indazol-5-yl)amino)-5-fluoronicotinamide]	< 10	65 to 130
CC(C)C[C@@H](Nc1nc(Nc2ccc3c(c2)c(C2CC2)nn3C)c(C(N)=O)cc1F)[C@H](C)N [Example 006-546, 6-(((2S,3R)-2-amino-5-methylhexan-3-yl)amino)-2-((3-cyclopropyl-1-methyl-1H-indazol-5-yl)amino)-5-fluoronicotinamide]	< 10	130 to 200
CC[C@@H](Nc1nc(Nc2ccc3c(c2)c(C2CC2)nn3C)c(C(N)=O)cc1F)[C@H](C)N [Example 006-547, 6-(((2S,3R)-2-aminopentan-3-yl)amino)-2-((3-cyclopropyl-1-methyl-1H-indazol-5-yl)amino)-5-fluoronicotinamide]	< 10	65 to 130
CCn1nc(C2CC2)c2cc(Nc3nc(N[C@@H]4CCCC[C@@H]4N)c(F)cc3C(N)=O)ccc21 [Example 006-548, 6-(((1R,2S)-2-aminocyclohexyl)amino)-2-((3-cyclopropyl-1-ethyl-1H-indazol-5-yl)amino)-5-fluoronicotinamide]	< 10	65 to 130
CCn1nc(C2CC2)c2cc(Nc3nc(N[C@H](CC(C)C)[C@H](C)N)c(F)cc3C(N)=O)ccc21 [Example 006-550, 6-(((2S,3R)-2-amino-5-methylhexan-3-yl)amino)-2-((3-cyclopropyl-1-ethyl-1H-indazol-5-yl)amino)-5-fluoronicotinamide]	< 10	130 to 200
CC[C@@H](Nc1nc(Nc2ccc3c(c2)c(C2CC2)nn3CC)c(C(N)=O)cc1F)[C@H](C)N [Example 006-551, 6-(((2S,3R)-2-aminopentan-3-yl)amino)-2-((3-cyclopropyl-1-ethyl-1H-indazol-5-yl)amino)-5-fluoronicotinamide]	< 10	130 to 200
COCCOc1ncc(Nc2nc(N[C@@H]3CCCC[C@@H]3N)c(F)cc2C(N)=O)cc1F [Example 006-552, 6-(((1R,2S)-2-aminocyclohexyl)amino)-5-fluoro-2-((5-fluoro-6-(2-methoxyethoxy)pyridin-3-yl)amino)nicotinamide]	10 to 50	65 to 130
NC(=O)c1cc(F)c(N[C@@H]2CCCC[C@@H]2N)nc1Nc1cnc(C2CC2)c(F)c1 [Example 006-553, 6-(((1R,2S)-2-aminocyclohexyl)amino)-2-((6-cyclopropyl-5-fluoropyridin-3-yl)amino)-5-fluoronicotinamide]	< 10	130 to 200
CCc1ncc(Nc2nc(N[C@@H]3CCCC[C@@H]3N)c(F)cc2C(N)=O)cc1F [Example 006-554, 6-(((1R,2S)-2-aminocyclohexyl)amino)-2-((6-ethyl-5-fluoropyridin-3-yl)amino)-5-fluoronicotinamide]	10 to 50	130 to 200
CCn1ncc2cc(Nc3nc(N[C@H](c4ccc(F)cc4)[C@H](C)N)c(F)cc3C(N)=O)ccc21 [Example 006-555, 6-(((1R,2S)-2-amino-1-(4-fluorophenyl)propyl)amino)-2-((1-ethyl-1H-indazol-5-yl)amino)-5-fluoronicotinamide]	< 10	65 to 130
COc1cc(Nc2nc(N[C@H](c3ccc(F)cc3)[C@H](C)N)c(F)cc2C(N)=O)ccn1 [Example 006-556, 6-(((1R,2S)-2-amino-1-(4-fluorophenyl)propyl)amino)-5-fluoro-2-((2-methoxypyridin-4-yl)amino)nicotinamide]	< 10	65 to 130
COc1cc(Nc2nc(N[C@H](c3ccc(F)cc3)[C@H](C)N)c(F)cc2C(N)=O)cc(OC)n1 [Example 006-557, 6-(((1R,2S)-2-amino-1-(4-fluorophenyl)propyl)amino)-2-((2,6-dimethoxypyridin-4-yl)amino)-5-fluoronicotinamide]	< 10	130 to 200
Cc1cc(Nc2nc(N[C@H](c3ccc(F)cc3)[C@H](C)N)c(F)cc2C(N)=O)cnc1C [Example 006-558, 6-(((1R,2S)-2-amino-1-(4-fluorophenyl)propyl)amino)-2-((5,6-dimethylpyridin-3-yl)amino)-5-fluoronicotinamide]	< 10	65 to 130
COCCOc1cc(Nc2nc(N[C@H](c3ccc(F)cc3)[C@H](C)N)c(F)cc2C(N)=O)ccn1 [Example 006-559, 6-(((1R,2S)-2-amino-1-(4-fluorophenyl)propyl)amino)-5-fluoro-2-((2-(2-methoxyethoxy)pyridin-4-yl)amino)nicotinamide]	< 10	65 to 130
CC[C@@H](Nc1nc(Nc2ccc3c(c2)c(N2CCOCC2)nn3C)c(C(N)=O)cc1F)[C@H](C)N [Example 006-563, 6-(((2S,3R)-2-aminopentan-3-yl)amino)-5-fluoro-2-((1-methyl-3-morpholino-1H-indazol-5-yl)amino)nicotinamide]	< 10	130 to 200
COc1ncc(Nc2nc(N[C@@H]3CCCC[C@@H]3N)c(F)cc2C(N)=O)cc1N1CCOCC1 [Example 006-564, 6-(((1R,2S)-2-aminocyclohexyl)amino)-5-fluoro-2-((6-methoxy-5-mopholinopyridin-3-yl)amino)nicotinamide]	100 to 1000	65 to 130
CCOc1ncc(Nc2nc(N[C@@H]3CCCC[C@@H]3N)c(F)cc2C(N)=O)cc1N1CCOCC1 [Example 006-565, 6-(((1R,2S)-2-aminocyclohexyl)amino)-2-((6-ethoxy-5-morpholinopyridin-3-yl)amino)-5-fluoronicotinamide]	100 to 1000	65 to 130
CCOc1ncc(Nc2nc(N[C@@H]3CCCC[C@@H]3N)c(F)cc2C(N)=O)cc1F [Example 006-572, 6-(((1R,2S)-2-aminocyclohexyl)amino)-2-((6-ethoxy-5-fluoropyridin-3-yl)amino)-5-fluoronicotinamide]	10 to 50	130 to 200
COCCOc1ncc(Nc2nc(N[C@@H]3CCCC[C@@H]3N)c(F)cc2C(N)=O)cc1-n1cccn1 [Example 006-575, 6-(((1R,2S)-2-aminocyclohexyl)amino)-2-((6-(2-methoxyethoxy)-5-(1H-pyrazol-1-yl)pyridin-3-yl)amino)-5-fluoronicotinamide]	10 to 50	130 to 200
CCn1ncc2c(Nc3nc(N[C@H](C4CC4)[C@H](C)N)c(F)cc3C(N)=O)cccc21 [Example 006-576, 6-(((1R,2S)-2-amino-1-cyclopropylpropyl)amino)-2-((1-ethyl-1H-indazol-4-yl)amino)-5-fluoronicotinamide]	< 10	< 65
C[C@H](N)[C@H](Nc1nc(Nc2ccc3c(c2)c(F)nn3C)c(C(N)=O)cc1F)C1CC1 [Example 006-577, 6-(((1R,2S)-2-amino-1-cyclopropylpropyl)amino)-2-((3-fluoro-1-methyl-1H-indazol-5-yl)amino)-5-fluoronicotinamide]	< 10	< 65
CCc1nn(C)c2ccc(Nc3nc(N[C@H](C4CC4)[C@H](C)N)c(F)cc3C(N)=O)cc12 [Example 006-578, 6-(((1R,2S)-2-amino-1-cyclopropylpropyl)amino)-2-((3-ethyl-1-methyl-1H-indazol-5-yl)amino)-5-fluoronicotinamide]	< 10	65 to 130
